# Values joined by “and” are separate entries in the source; they are usually repeats but may differ in a detail not shown here. Equal values may be shown once. Read-outs that look alike come from different tables or passages of the source.
# Experiments:
# MOR [1] = biological target: T1, MOR (Homo sapiens, UniProt P35372); assay: cell-based
# mMOR [2] = biological target: T2, mMOR (Mus musculus, UniProt P42866); assay: biochemical; conditions: for EC50: EC50 mMOR [35S]GTPγS, ± SEM; for Emax: read-out: Emax mMOR [35S]GTPγS
# Y312W-hKOR [3] = biological target: T3, Y312W-hKOR (Homo sapiens, UniProt P41145, Y312W)
# KOR [4] = biological target: T4, KOR (Homo sapiens, UniProt P41145); assay: cell-based; conditions: for EC50: EC50 cAMP inhibition hKOR; for Emax: HEK-293T, read-out: Emax% cAMP inhibition hKOR
# rKOR [5] = biological target: T5, rKOR (Rattus norvegicus, UniProt P34975); assay: cell-based; conditions: for Emax: HEK-293T, read-out: Emax% G protein activation (BRET) rKOR
# mMOR [6] = biological target: T2, mMOR; assay: cell-based; conditions: for EC50: EC50 G protein activation (BRET) mMOR; for Emax: HEK-293T, read-out: Emax% G protein activation (BRET) mMOR
# mDOR [7] = biological target: T6, mDOR (Mus musculus, UniProt P32300); assay: cell-based
# mDOR [8] = biological target: T6, mDOR; assay: biochemical; conditions: read-out: Emax mDOR [35S]GTPγS
# KOR [9] = biological target: T4, KOR; assay: cell-based; conditions: for Emax: HTLA, read-out: Emax% arrestin recruitment (Tango) hKOR
# KOR [10] = biological target: T4, KOR; conditions: for Log RA cAMP hKOR / LogRA Tango hKOR: transduction coefficient log(T/KA)
# mMOR [11] = biological target: T2, mMOR
# mDOR [12] = biological target: T6, mDOR; assay: cell-based; conditions: for Emax: HEK-293T, read-out: Emax% G protein activation (BRET) mDOR
# mKOR [13] = biological target: T7, mKOR (Mus musculus, UniProt P33534); assay: biochemical
# DOR [14] = biological target: T8, DOR (Homo sapiens, UniProt P41143); assay: cell-based; conditions: for EC50: Tango; for Emax: HTLA, read-out: Emax% arrestin recruitment hDOR
# MOR [15] = biological target: T1, MOR
# MOR [16] = biological target: T1, MOR; assay: cell-based; conditions: for Emax: HEK-293T, read-out: Emax% cAMP inhibition hMOR
# Y312W-hKOR [17] = biological target: T3, Y312W-hKOR; assay: cell-based; conditions: read-out: Emax% cAMP inhibition Y312W-hKOR
# Y312W-hKOR [18] = biological target: T3, Y312W-hKOR; assay: cell-based
# rKOR [19] = biological target: T5, rKOR; assay: cell-based; conditions: HEK-293T, read-out: Emax% arrestin recruitment (BRET) rKOR
# DOR [20] = biological target: T8, DOR; assay: cell-based; conditions: for EC50: EC50 cAMP inhibition hDOR; for Emax: HEK-293T, read-out: Emax% cAMP inhibition hDOR
# mMOR [21] = biological target: T2, mMOR; assay: cell-based; parameters: expressed in transfected cells; host or cells: HEK-293T
# mMOR [22] = biological target: T2, mMOR; assay: biochemical
# rKOR [23] = biological target: T5, rKOR
# mKOR [24] = biological target: T7, mKOR; assay: biochemical; conditions: for EC50: EC50 mKOR [35S]GTPγS, ± SEM; for Emax: read-out: Emax mKOR [35S]GTPγS
# [25] = tested on: MOR KO, KOR KO and DOR KO mice; assay: 55°C warm-water tail-withdrawal assay in opioid receptor knock out mice; format: in vivo, mouse
# rKOR [26] = biological target: T5, rKOR; conditions: BRET, rodent receptors
# MOR [27] = biological target: T1, MOR; remark: listed apart in the source
# mDOR [28] = biological target: T6, mDOR; conditions: binding assays
# [29] = EC50 arrestin recruitment (Tango) hKOR
# [30] = EC50 G protein activation (BRET) mDOR
# [31] = DOR KO mice, 100 nmol i.c.v., 40 min, single mice and mean (n=8)
# [32] = DOR KO mice, 100 nmol i.c.v., 110 min, single mice and mean (n=8)
# [33] = MOR KO mice, 100 nmol i.c.v., 60 min, single mice and mean (n=8)
# [34] = MOR KO mice, 100 nmol i.c.v., 70 min, single mice and mean (n=8)
# [35] = MOR KO mice, 100 nmol i.c.v., 80 min, single mice and mean (n=8)
# [36] = MP1207 30 nmol icv, MP1208 35 nmol icv
# T3 sequence (P41145 whole entry Y312W): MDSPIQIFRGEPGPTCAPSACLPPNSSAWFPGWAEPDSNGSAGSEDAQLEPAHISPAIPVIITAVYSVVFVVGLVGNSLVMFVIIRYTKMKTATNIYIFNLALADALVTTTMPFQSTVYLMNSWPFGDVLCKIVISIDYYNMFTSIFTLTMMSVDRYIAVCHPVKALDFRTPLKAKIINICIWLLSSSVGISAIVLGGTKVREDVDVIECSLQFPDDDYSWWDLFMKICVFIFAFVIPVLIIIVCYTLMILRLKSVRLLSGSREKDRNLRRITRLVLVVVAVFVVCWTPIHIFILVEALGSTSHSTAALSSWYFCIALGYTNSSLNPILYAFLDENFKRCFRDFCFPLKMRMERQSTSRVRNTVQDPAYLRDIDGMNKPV
# T8 sequence (P41143 whole entry): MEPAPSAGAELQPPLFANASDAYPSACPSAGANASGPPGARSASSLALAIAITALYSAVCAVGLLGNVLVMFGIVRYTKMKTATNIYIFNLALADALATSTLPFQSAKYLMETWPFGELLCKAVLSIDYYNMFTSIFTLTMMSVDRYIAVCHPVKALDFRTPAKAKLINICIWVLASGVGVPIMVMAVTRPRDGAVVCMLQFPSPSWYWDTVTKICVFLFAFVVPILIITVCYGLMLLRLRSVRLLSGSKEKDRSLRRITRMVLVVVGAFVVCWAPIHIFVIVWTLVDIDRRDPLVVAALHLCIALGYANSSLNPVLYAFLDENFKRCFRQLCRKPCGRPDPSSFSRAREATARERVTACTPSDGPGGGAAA
# T7 sequence (P33534 whole entry): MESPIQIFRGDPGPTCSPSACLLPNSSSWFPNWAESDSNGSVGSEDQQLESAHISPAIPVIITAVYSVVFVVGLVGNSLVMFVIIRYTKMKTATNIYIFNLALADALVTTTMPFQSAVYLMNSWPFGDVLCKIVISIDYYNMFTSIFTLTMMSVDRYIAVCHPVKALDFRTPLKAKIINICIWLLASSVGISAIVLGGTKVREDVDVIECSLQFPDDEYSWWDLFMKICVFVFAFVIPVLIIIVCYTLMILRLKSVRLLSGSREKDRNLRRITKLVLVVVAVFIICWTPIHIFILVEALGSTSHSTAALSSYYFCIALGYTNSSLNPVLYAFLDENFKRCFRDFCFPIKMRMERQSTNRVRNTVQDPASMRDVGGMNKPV
# T6 sequence (P32300 whole entry): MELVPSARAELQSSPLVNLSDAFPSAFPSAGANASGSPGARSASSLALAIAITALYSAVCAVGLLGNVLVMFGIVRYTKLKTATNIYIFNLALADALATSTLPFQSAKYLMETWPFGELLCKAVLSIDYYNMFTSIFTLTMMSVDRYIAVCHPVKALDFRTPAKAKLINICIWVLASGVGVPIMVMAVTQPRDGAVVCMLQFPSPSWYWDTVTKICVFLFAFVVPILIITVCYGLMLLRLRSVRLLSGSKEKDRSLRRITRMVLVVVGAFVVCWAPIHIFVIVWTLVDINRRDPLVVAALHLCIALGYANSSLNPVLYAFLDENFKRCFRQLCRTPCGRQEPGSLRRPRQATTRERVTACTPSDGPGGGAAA
# T5 sequence (P34975 whole entry): as the sequence (P33534 whole entry) above, with D11E, S17A, S51P, A308V counted along it
# T2 sequence (P42866 whole entry): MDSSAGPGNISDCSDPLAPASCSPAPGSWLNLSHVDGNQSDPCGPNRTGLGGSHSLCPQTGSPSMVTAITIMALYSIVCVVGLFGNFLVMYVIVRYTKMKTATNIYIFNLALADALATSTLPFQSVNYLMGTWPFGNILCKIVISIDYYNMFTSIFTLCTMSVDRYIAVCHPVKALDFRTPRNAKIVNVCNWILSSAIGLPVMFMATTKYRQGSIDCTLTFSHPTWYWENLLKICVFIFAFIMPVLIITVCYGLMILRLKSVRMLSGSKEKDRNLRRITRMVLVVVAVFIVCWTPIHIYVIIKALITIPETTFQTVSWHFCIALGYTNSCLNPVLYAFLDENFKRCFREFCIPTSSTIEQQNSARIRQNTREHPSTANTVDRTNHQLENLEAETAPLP
# T1 sequence (P35372 whole entry): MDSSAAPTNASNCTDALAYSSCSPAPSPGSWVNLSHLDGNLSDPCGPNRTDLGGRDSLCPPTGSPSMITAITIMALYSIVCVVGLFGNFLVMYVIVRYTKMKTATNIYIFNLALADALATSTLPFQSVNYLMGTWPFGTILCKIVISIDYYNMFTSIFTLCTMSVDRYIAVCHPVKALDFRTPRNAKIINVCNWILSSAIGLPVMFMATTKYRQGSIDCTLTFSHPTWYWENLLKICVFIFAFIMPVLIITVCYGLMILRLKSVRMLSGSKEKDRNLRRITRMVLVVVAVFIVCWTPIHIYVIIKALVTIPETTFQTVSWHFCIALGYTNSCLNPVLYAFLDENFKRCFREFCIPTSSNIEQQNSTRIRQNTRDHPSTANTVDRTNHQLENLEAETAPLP
# T4 sequence (P41145 whole entry): as the sequence (P41145 whole entry Y312W) above, with W312Y counted along it
smiles,measurement,setting,value
"O=C(N[C@@H]1CCC2C3Cc4ccc(O)c5c4[C@@]2(CCN3CC2CC2)C1O5)c1cccc(I)c1 (stereo partly drawn) [MP1202, N-((7R,12bS)−3-(Cyclopropylmethyl)−9-hydroxy-2,3,4,4a,5,6,7,7a-octahydro-1H-4,12-methanobenzofuro[3,2-e]isoquinolin-7-yl)−3-iodobenzamide]",EC50,MOR [1],26.8 nM
same,Emax,"MOR [1]; HTLA, read-out: Emax% arrestin recruitment (Tango) hMOR",53 ± 2%
same,EC50,mMOR [2],0.32 ± 0.03 nM
same,Emax,mMOR [2],68 ± 1%
same,Log RA cAMP Y312W-hKOR,Y312W-hKOR [3],10.63±0.005
same,LogRA Tango Y312W-hKOR,Y312W-hKOR [3],8.091±0.051
same,ΔΔlog RA (cAMP-Tango) Y312W-hKOR,Y312W-hKOR [3],1.53±0.073
same,Bias factor (cAMP-Tango) Y312W-hKOR,"Y312W-hKOR [3]; vs U50,488h",34
same,ΔlogRA Tango Y312W-hKOR,"Y312W-hKOR [3]; vs U50,488h",0.532±0.073
same,ΔlogRA cAMP Y312W-hKOR,"Y312W-hKOR [3]; vs U50,488h",2.062±0.007
same,EC50,KOR [4],0.00139 nM
same,Emax,KOR [4],97.9 ± 2.5%
same,Emax,rKOR [5],104 ± 2%
same,EC50,mMOR [6],0.63 nM
same,Emax,mMOR [6],70%
same,EC50,mDOR [7]; EC50 arrestin recruitment (BRET) mDOR,525 nM
same,Emax,"mDOR [7]; HEK-293T, read-out: Emax% arrestin recruitment (BRET) mDOR",26 ± 2.3%
same,Emax,mDOR [8],71 ± 2%
same,EC50,KOR [9]; [29],0.0457 nM
same,Emax,KOR [9],101 ± 1%
same,ΔΔlog RA (cAMP-Tango) hKOR,KOR [10],-0.19±0.072
same,Log RA cAMP hKOR,KOR [10],11.88±0.050
same,LogRA Tango hKOR,KOR [10],10.30±0.004
same,ΔlogRA Tango hKOR,"KOR [10]; vs U50,488h",1.856±0.006
same,ΔlogRA cAMP hKOR,"KOR [10]; vs U50,488h",1.66±0.072
same,Emax% G protein activation (BRET) mMOR,mMOR [11],61±1.5%
same,EC50,mDOR [12]; [30],7.03 nM
same,Emax,mDOR [12],103 ± 4.6%
same,EC50,"mDOR [12]; pEC50 G protein activation (BRET) mDOR, ± SEM",7.94 nM
same,Ki,mKOR [13],0.11 ± 0.064 nM
same,EC50,DOR [14]; EC50 arrestin recruitment hDOR,18.1 nM
same,Emax,DOR [14],26 ± 3.1%
same,Bias factor (cAMP-Tango) hMOR,MOR [15],31
same,Log RA cAMP hMOR,MOR [15],9.99±0.012
same,LogRA Tango hMOR,MOR [15],7.24±0.002
same,ΔlogRA Tango hMOR,MOR [15],0.058±0.002
same,ΔlogRA cAMP hMOR,MOR [15],1.55±0.016
same,ΔΔlog RA (cAMP-Tango) hMOR,MOR [15],1.49±0.016
same,EC50,MOR [16]; EC50 cAMP inhibition hMOR,0.077 nM
same,Emax,MOR [16],92 ± 1.4%
same,Emax,Y312W-hKOR [17],101 ± 1.5%
same,EC50,Y312W-hKOR [18],3.4 nM
same,Emax,Y312W-hKOR [18]; read-out: Emax% arrestin recruitment (Tango) Y312W-hKOR,55 ± 2.6%
same,Emax,rKOR [19],77 ± 5%
same,EC50,DOR [20],8.18 nM
same,Emax,DOR [20],99 ± 2.2%
same,EC50,mMOR [21],3140 nM
same,Emax% arrestin recruitment (BRET) mMOR,mMOR [21],53 ± 1.6%
same,Emax,"mMOR [21]; HEK-293T, read-out: Emax% arrestin recruitment (BRET) mMOR",57%
same,Ki,mMOR [22],0.071 ± 0.031 nM
same,Log RA BRET-G rKOR,rKOR [23],9.906±0.088
same,LogRA BRET-Arr rKOR,rKOR [23],8.791±0.171
same,ΔΔlog RA (BRETG-BRETArr) rKOR,rKOR [23],-0.399±0.27
same,ΔlogRA BRET-G rKOR,"rKOR [23]; vs U50,488h",1.594±0.117
same,ΔlogRA BRET-arr rKOR,"rKOR [23]; vs U50,488h",1.993±0.239
same,EC50,mKOR [24],0.13 ± 0.02 nM
same,Emax,mKOR [24],94 ± 5%
"N=C(N)NCc1cccc(C(=O)N[C@@H]2CCC3C4Cc5ccc(O)c6c5[C@@]3(CCN4CC3CC3)C2O6)c1 (stereo partly drawn) [MP1208, N-((7R,12bS)−3-(Cyclopropylmethyl)−9-hydroxy-2,3,4,4a,5,6,7,7a-octahydro-1H-4,12-methanobenzofuro[3,2-e]isoquinolin-7-yl)−3-(guanidinomethyl)benzamide]",30 min (tail-withdrawal latency),"[25]; DOR KO mice, 100 nmol i.c.v., 30 min, single mice and mean (n=8)",15 s and 8 s and 14.125 s
same,40 min (tail-withdrawal latency),[25]; [31],15 s and 14.7 s and 12.1 s and 14.6 s
same,%A-40 min (% antinociception),[25]; [31],100% and 97.83% and 77.34% and 96.8962%
same,%A-100 min (% antinociception),"[25]; DOR KO mice, 100 nmol i.c.v., 100 min, single mice and mean (n=8)",0% and 3.7% and 0.72% and 6.25% and 1.334%
same,110 min (tail-withdrawal latency),[25]; [32],1.4 s and 1.9 s and 1.3 s and 1.6 s and 1.5 s and 2.2 s and 1.5625 s
same,%A-110 min (% antinociception),[25]; [32],0% and 2.96% and 2.9% and 0.7325%
same,60 min (tail-withdrawal latency),[25]; [33],1.3 s and 1.2 s and 1.5 s and 1.7 s and 1.4 s and 1.4375 s
same,%A-60 min (% antinociception),[25]; [33],0% and 2.17% and 3.62% and 2.16% and 1.446%
same,70 min (tail-withdrawal latency),[25]; [34],1.3 s and 1.4 s and 1.8 s and 1.2 s and 1.35 s
same,%A-70 min (% antinociception),[25]; [34],0% and 0.72% and 2.94% and 0.7275%
same,80 min (tail-withdrawal latency),[25]; [35],1.3 s and 1.1 s and 1.9 s and 1.2 s and 1.2875 s
same,%A-80 min (% antinociception),[25]; [35],0% and 5.07% and 0.72% and 0.7238%
same,antinociception in DOR KO mice vs WT,[25]; [36],remained intact
same,antinociception in KOR KO mice vs WT,[25]; [36],attenuated
same,antinociception in MOR KO mice vs WT,[25]; [36],attenuated
same,EC50,mMOR [2],1.1 nM and 1.13 nM
same,Emax,mMOR [2],54 ± 0.7%
same,EC50,KOR [4],0.14 nM
same,Emax,KOR [4],96 ± 1.9%
same,EC50,rKOR [5],1.07 nM
same,Emax,rKOR [5],40 ± 2.4%
same,EC50,mMOR [6],2.27 nM
same,Emax,mMOR [6],41 ± 3%
same,Emax,mDOR [8],10 to 15%
same,EC50,KOR [9]; [29],16.4 nM
same,Emax,KOR [9],48 ± 2.4%
same,EC50,"KOR [9]; pEC50 arrestin recruitment (Tango) hKOR, ± SEM",16.2 nM
same,ΔΔlog RA (cAMP-Tango) hKOR,KOR [10],1.35±0.022
same,Bias factor (cAMP-Tango) hKOR,"KOR [10]; >1 G protein bias, <1 arrestin bias, vs U50,488h",22
same,Log RA cAMP hKOR,KOR [10],9.83±0.004
same,LogRA Tango hKOR,KOR [10],7.447±0.020
same,ΔlogRA Tango hKOR,"KOR [10]; vs U50,488h",-0.697±0.022
same,ΔlogRA cAMP hKOR,"KOR [10]; vs U50,488h",0.65±0.005
same,EC50,mDOR [12]; [30],26.6 nM
same,Emax,mDOR [12],58 ± 3.3%
same,Ki,mKOR [13],0.28 ± 0.02 nM
same,EC50,DOR [14]; EC50 arrestin recruitment hDOR,3620 nM
same,Emax,DOR [14],62 ± 16.7%
same,EC50,"DOR [14]; pEC50 arrestin recruitment hDOR, ± SEM",3160 nM
same,arrestin recruitment at rKOR (in words),rKOR [26],No recruitment of βarrestin-2
same,arrestin recruitment at hMOR (in words),MOR [27],completely abolished
same,Emax,MOR [16],42 ± 1.3%
same,Emax,Y312W-hKOR [17],97 ± 1%
same,EC50,DOR [20],2.49 nM
same,Emax,DOR [20],39 ± 1.8%
same,selectivity for MOR and KOR over DOR,mDOR [28],more than 40 fold
same,arrestin recruitment at mMOR (in words),mMOR [21],No recruitment of βarrestin-2
same,Ki,mMOR [22],0.34 ± 0.01 nM
same,EC50,mKOR [24],1.4 nM and 1.36 nM
same,Emax,mKOR [24],43 ± 0.8%

# From publication PMC7909954 (eLife, 2021)
